# From patent publication US20130095059A1, “INHALED NO DONOR KMUPS DERIVATIVE PREVENTING ALLERGIC PULMONARY VASCULAR AND BRONCHIAL INFLAMMATION VIA SUPPRESSED CYTOKINES, INOS AND INFLAMMATORY CELL COUNTS IN ASTHMA MODEL” (priority 2007, published 2013)
# Legend:
# eNOS = assay: Protein expression (optical density %) after KMUPs salts, eNOS; type: cell-based; conditions: 10 μM, 120 min; without treatment control 100 %
# ROCKII = assay: Protein expression (optical density %) after KMUPs salts, ROCKII; type: cell-based; conditions: 10 μM, 120 min; without treatment control 100 %
# PDE-5A = assay: Protein expression (optical density %) after KMUPs salts, PDE-5A; type: cell-based; conditions: 10 μM, 120 min; without treatment control 100 %
# BALF cells [1] = assay: Ovalbumine model, bronchoalveolar lavage cell counts; type: in vivo, BALB/c mice; conditions: oral 2.5 mg Kg^−1; for Neurophil: OVA 1.0 ± 0.2; for Lymphocyte / monocyte: OVA 2.4 ± 0.3; for (Table 5) / Eosinophil: OVA 37.2 ± 2.8; for Total cells: OVA 65.3 ± 3.4
# MMP-9 [2] = assay: Ovalbumine model, MMP-9 expression, zymography and immunostaining; type: in vivo, BALB/c mice; conditions: oral 2.5 mg Kg^−1; non-treatment allergic animal 100 %
# BALF cells [3] = assay: Ovalbumine model, bronchoalveolar lavage cell counts; type: in vivo, BALB/c mice; conditions: inhalation 5 mM; for Neurophil: OVA 1.0 ± 0.2; for Lymphocyte / monocyte: OVA 2.4 ± 0.3; for (Table 5) / Eosinophil: OVA 37.2 ± 2.8; for Total cells: OVA 65.3 ± 3.4
# Protocol: (§1) In this long-term experiment, 6-8 week old BALB/c female mice were sensitized on days 1 and 8 by intra-peritoneal injection (i.p.) of ovalbumine (10 μg) (Sigma-Aldrich, Schnelldorf, Germany) adsorbed to 2 mg aluminum hydroxide (AlumInject; Perbio, Erembodegem, Belgium). Mice were divided into three groups. In Group 1, a control group was only exposed to saline nebulization by aerosol. The other 2 groups were subjected to ovalbumine (1%) nebulization. Before each challenge with ovalbumine, mice were either exposed to saline nebulization (Group 2) or KMUP-1 nebulization (5 mM) for 30 min by aerosol (Group 3).
# After the sacrifice of mice, a cannula was placed in the trachea for bronchoalveolar lavage by gentle manual aspiration, using cold PBS-EDTA (0.05 mM, 1 ml) (Calbiochem, Darmstadt, Germany) as previously described (Cataldo D D, et al., 2002). The broncho alveolar lavage fluid (BALF) was centrifuged at 4° C. for 10 min (1200 rpm). The supernatant was frozen at −80° C. for protein assessment and the cell pellet was resuspended in PBS-EDTA (0.05 mM, 1 ml). Total cell counts were performed manually using a thoma chamber. The differential cell counts were performed using morphologic criteria on cytocentrifuged preparations (Cytospin) after staining with Diff-Quick (Dade, Belgium). Differential cell counts were performed by one blinded observer unaware of the experimental treatment.
# MMP-9 [4] = assay: Ovalbumine model, MMP-9 expression, zymography and immunostaining; type: in vivo, BALB/c mice; conditions: inhalation 5 mM; non-treatment allergic animal 100 %
# Protocol: as §1
# The gelatinolytic activity of MMP-9 was measured by gelatin zymography as described previously (Cataldo D D, et al., 2002). Briefly, BALF (10 μl) was subjected to electrophoresis in 10% polyacrylamide gel containing gelatin (1 mg/ml). The gel was washed in 2.5% Triton X-100 to permit re-naturation of gelatinases and stained with Coomassie blue after overnight incubation. Destaining visualized clear zones of lysis against a blue background indicated the gelatinase activity (Hibbs, M S, et al., 1985).
# The lung tissues were homogenized, washed with PBS and incubated in lysis buffer in addition to a protease inhibitor cocktail (Sigma, St. Louis, Mo.) to obtain extracts of lung proteins. A Western blot analysis was performed as described previously (Wu B N, et al., 2006). The samples were loaded to 10% SDS-PAGE gels and were separated at 120 V for 90 min. The blots were incubated with anti-eNOS antibody diluted at a ratio of 1:500, anti-sGCα1 antibody diluted at a ratio of 1:2000, anti-PKG antibody diluted at a ratio of 1:500, anti-VCAM-1 antibody diluted at a ratio of 1:500, anti-ICAM-1 antibody diluted at a ratio of 1:500, and anti-MMP-9 antibody diluted at a ratio of 1:600 overnight at 4° C. The membranes were stripped and re-blotted with anti-actin antibody (Sigma, St. Louis, Mo.) to verify the equal loading of protein in each lane.
# Immunohistochemical analysis of eNOS enhancement by KMUP-1 was performed as follows. The lungs were perfused with saline followed by 10% formalin and then placed in 10% formalin for paraffin embedding. The lung tissues were cut into […] sections onto slides, dewaxed in 100% xylene, and then re-hydrated in graded alcohol solutions. Throughout the procedures, slides were washed as appropriate in PBS. Antigen retrieval was performed by microwave treatment for eNOS immunostaining. Sections were treated with 3% H2O2 (10 min) to inhibit endogenous peroxidases and incubated with normal serum (60 min) to reduce nonspecific binding of secondary antibodies. Sections were then incubated at 4° C. overnight with eNOS antibodies. After washing off unbounded primary antibodies, sections were incubated with secondary biotinylated antibodies against mouse or rabbit (DAKO Co., Japan) (60 min), followed by incubation in avidin/biotin/horseradish peroxidase complex (DAKO Co., Japan) (30 min) Subsequently, peroxidase activity was visualized by incubation (3 min) with 0.05% 3,3′-diaminobenzidine (DAKO Co., Japan), which gives a brown reaction product. The reaction was stopped by washing with water. The slides were counterstained with hematoxylin. For immunostaining of MMP-9 in lung tissue, the de-paraffinized 3-5 μm sections of lung tissue was performed as above eNOS, but using MMP-9 antibody.
# iNOS = assay: Ovalbumine model, iNOS expression; type: in vivo, BALB/c mice; conditions: non-treatment allergic animal 100 %
# IL-5 = assay: Ovalbumine model, plasma IL-5 (ELISA); type: in vivo, mice; conditions: OVA-sens, OVA-sens alone 43 ± 6
# Protocol: as §1
# IL-13 = assay: Ovalbumine model, plasma IL-13 (ELISA); type: in vivo, mice; conditions: OVA-sens, OVA-sens alone 35 ± 6
# Protocol: as §1
SMILES,"eNOS protein expression, optical densitivity % (eNOS)","ROCKII protein expression, optical densitivity % (ROCKII)","PDE-5A protein expression, optical densitivity % (PDE-5A)",Neurophil (BALF cells [1]),Lymphocyte (BALF cells [1]),monocyte (BALF cells [1]),(Table 5) (BALF cells [1]),Eosinophil (BALF cells [1]),Total cells (BALF cells [1]),MMP-9 (MMP-9 [2]),Neurophil (BALF cells [3]),Lymphocyte (BALF cells [3]),monocyte (BALF cells [3]),(Table 5) (BALF cells [3]),Eosinophil (BALF cells [3]),Total cells (BALF cells [3]),MMP-9 (MMP-9 [4]),iNOS (iNOS; inhalation 5 mM),iNOS (iNOS; oral 2.5 mg Kg^−1),also measured
"Cn1c(=O)c2c(ncn2CCN2CCN(c3ccccc3Cl)CC2)n(C)c1=O.O=C(O)CC(O)(CC(=O)O)C(=O)O [KMUP-1-citric acid, 7-[2-[4-(2-chlorobenzene)piperazinyl]ethyl]-1,3-dimethylxanthine-Citric acid]",152 ± 13.6%,43 ± 3.8%,66 ± 5.2%,–,–,–,–,–,–,–,–,–,–,–,–,–,–,–,–,–
"Cl.Cn1c(=O)c2c(ncn2CCN2CCN(c3ccccc3[N+](=O)[O-])CC2)n(C)c1=O [KMUP-4 HCl, 7-[2-[4-(2-nitrobenzene)piperazinyl]ethyl]-1,3-dimethylxanthine hydrochloride]",135 ± 7.5%,37 ± 2.8%,73 ± 3.4%,1.1 ± 0.3 × 10^4 cell/ml,1.7 ± 1.8 × 10^4 cell/ml,1.7 ± 1.8 × 10^4 cell/ml,20 ± 3.5 × 10^4 cell/ml,20 ± 3.5 × 10^4 cell/ml,51.8 ± 0.4 × 10^4 cell/ml,56 ± 3.4%,1.1 ± 0.2 × 10^4 cell/ml,1.6 ± 3.4 × 10^4 cell/ml,1.6 ± 3.4 × 10^4 cell/ml,21 ± 6.7 × 10^4 cell/ml,21 ± 6.7 × 10^4 cell/ml,53.4 ± 0.3 × 10^4 cell/ml,37 ± 2.8%,35 ± 7.5%,31 ± 6.7%,–
"COc1ccccc1N1CCN(CCn2cnc3c2c(=O)n(C)c(=O)n3C)CC1.O=C(O)CC(O)(CC(=O)O)C(=O)O [KMUP-2-citric acid, 7-[2-[4-(2-methoxybenzene)piperazinyl]ethyl]-1,3-dimethylxanthine-Citric acid]",–,40 ± 3.7%,71 ± 5.4%,–,–,–,–,–,–,–,–,–,–,–,–,–,–,–,–,–
"COc1ccccc1N1CCN(CCn2cnc3c2c(=O)n(C)c(=O)n3C)CC1.Cl [KMUP-2 HCl, 7-[2-[4-(2-methoxybenzene)piperazinyl]ethyl]-1,3-dimethylxanthine hydrochloride]",–,40 ± 3.7%,68 ± 5.3%,–,–,–,–,–,–,–,1.0 ± 0.4 × 10^4 cell/ml,1.2 ± 3.7 × 10^4 cell/ml,1.2 ± 3.7 × 10^4 cell/ml,25 ± 2.2 × 10^4 cell/ml,25 ± 2.2 × 10^4 cell/ml,51.0 ± 0.4 × 10^4 cell/ml,40 ± 3.7%,47 ± 8.6%,–,IL-5 (IL-5; inhalation 5 mM): 32 ± 6 pg/mL; IL-13 (IL-13; inhalation 5 mM): 15 ± 3 pg/mL
"Cn1c(=O)c2c(ncn2CCN2CCN(c3ccc([N+](=O)[O-])cc3)CC2)n(C)c1=O.O=C(O)c1cccnc1 [KMUP-3-nicotinic acid, 7-[2-[4-(4-nitrobenzene)piperazinyl]ethyl]-1,3-dimethylxanthine-Nicotinic acid]",145 ± 7.5%,43 ± 1.6%,60 ± 4.1%,–,–,–,–,–,–,–,–,–,–,–,–,–,–,–,–,–
"Cl.Cn1c(=O)c2c(ncn2CCN2CCN(c3ccc([N+](=O)[O-])cc3)CC2)n(C)c1=O [KMUP-3 HCl, 7-[2-[4-(4-nitrobenzene)piperazinyl]ethyl]-1,3-dimethyl xanthine HCl]",148 ± 7.5%,44 ± 2.9%,63 ± 5.2%,1.1 ± 0.3 × 10^4 cell/ml,1.7 ± 2.8 × 10^4 cell/ml,1.7 ± 2.8 × 10^4 cell/ml,25 ± 2.5 × 10^4 cell/ml,25 ± 2.5 × 10^4 cell/ml,51.2 ± 0.3 × 10^4 cell/ml,43 ± 1.6%,1.0 ± 0.3 × 10^4 cell/ml,1.3 ± 0.6 × 10^4 cell/ml,1.3 ± 0.6 × 10^4 cell/ml,24 ± 3.5 × 10^4 cell/ml,24 ± 3.5 × 10^4 cell/ml,52.1 ± 0.2 × 10^4 cell/ml,44 ± 2.9%,48 ± 7.5%,45 ± 7.5%,–
"CCC(C)(C)C(=O)O[C@H]1C[C@@H](C)C=C2C=C[C@H](C)[C@H](CC[C@@H]3C[C@@H](O)CC(=O)O3)[C@H]21 [Simvastatin, reference compound]",–,–,–,1.5 ± 0.4 × 10^4 cell/ml,1.8 ± 0.7 × 10^4 cell/ml,1.8 ± 0.7 × 10^4 cell/ml,27 ± 1.6 × 10^4 cell/ml,27 ± 1.6 × 10^4 cell/ml,52.5 ± 0.4 × 10^4 cell/ml,41 ± 2.5%,–,–,–,–,–,–,–,–,58 ± 12.4%,IL-5 (IL-5; oral 2.5 mg Kg^−1): 158 ± 12.4 pg/mL; IL-13 (IL-13; oral 2.5 mg Kg^−1): 41 ± 2.5 pg/mL
"Cn1c(=O)c2c(ncn2CCN2CCN(c3ccccc3[N+](=O)[O-])CC2)n(C)c1=O.O=C(O)CC(O)(CC(=O)O)C(=O)O [KMUP-4-citric acid, 7-[2-[4-(2-nitrobenzene)piperazinyl]ethyl]-1,3-dimethylxanthine-Citric acid]",131 ± 6.7%,56 ± 3.4%,78 ± 3.6%,–,–,–,–,–,–,–,–,–,–,–,–,–,–,–,–,–
"Cl.Cn1c(=O)c2c(ncn2CCN2CCN(c3ccccc3Cl)CC2)n(C)c1=O [KMUP-1 HCl, 7-[2-[4-(2-chlorophenyl)piperazinyl]ethyl]-1,3-dimethylxanthine HCl]",155 ± 14.8%,42 ± 6.3%,64 ± 4.5%,–,–,–,–,–,–,–,1.0 ± 0.2 × 10^4 cell/ml,1.5 ± 0.3 × 10^4 cell/ml,1.5 ± 0.3 × 10^4 cell/ml,23.7 ± 2.8 × 10^4 cell/ml,23.7 ± 2.8 × 10^4 cell/ml,50.6 ± 2.4 × 10^4 cell/ml,42 ± 6.3%,55 ± 14.8%,–,IL-5 (IL-5; inhalation 5 mM): 31 ± 6 pg/mL; IL-13 (IL-13; inhalation 5 mM): 14 ± 5 pg/mL
"Cn1c(=O)c2c(ncn2CCN2CCN(c3ccccc3Cl)CC2)n(C)c1=O.O=C(O)c1cccnc1 [KMUP-1-nicotinic acid, 7-[2-[4-(2-chlorobenzene)piperazinyl]ethyl]-1,3-dimethylxanthine-Nicotinic acid]",158 ± 12.4%,41 ± 2.5%,62 ± 4.8%,–,–,–,–,–,–,–,–,–,–,–,–,–,–,–,–,–
